Source: patent publication US4952689A, “3-(substituted propylidene)-2-azetidinone derivates for blood platelet aggregation” (Taisho Pharmaceutical Co., Ltd., priority 1988, dated 1990)

Each compound was assayed on acute thrombocytopenia (assay: Inhibitory effect on acute thrombocytopenia in mice (ADP-induced)). Settings: 300 mg/kg by gavage 2 hours prior to ADP (1 mg/kg, tail vein); platelet count at 30 seconds after ADP.
Assay type: in vivo, male ICR mice
Procedure: Experiment [Inhibitory effect on acute thrombocytopenia in mice]
Ten male ICR mice weighing 20-30 g were used for each group. Under pentobarbital anaesthesia, adenosine diphosphate (ADP) dissolved in physiological saline in a dose of 1 mg/kg was injected into the tail vein and 20 μl of blood was collected from the femoral artery at 30 seconds after injection of ADP. Immediately after blood sampling, platelet counts were measured with an automatic blood cell counter (Sysmex CC-180A). Platelet count of normal group without injection of ADP was measured as well.
Test drugs [Compounds 2 and 3 (the compounds of the present invention) and Compound 1 (the comparative drug) in Table 1] were suspended in 5% gum arabic solution and administered by gavage in a dose of 300 mg/kg 2 hours prior to injection of ADP. As control group, 5% gum arabic solution without test drugs was administered.
Inhibition ratio of acute thrombocytopenia was calculated by the following formula. [formula]
Note: A: Platelet count of the group treated with both test drug and ADP
B: Platelet count of control group with both 5% gum arabic solution and ADP
C: Platelet count of normal group without injection of ADP

Compared with COc1ccc(N2C(=O)/C(=C/C(C)=NOCC(=O)O)C2c2ccccc2)cc1 (stereo not drawn) [Compound 1, (E)-1-(4-Methoxyphenyl)-3-(2-carboxymethoxyiminopropylidene)-4-phenyl-2-azetidinone, reference compound], COc1ccc(N2C(=O)/C(=C/C(C)=NOCCCN3CCOCC3)C2c2ccccc2)cc1 (stereo not drawn) [Compound 2, (E)-1-(4-Methoxyphenyl)-3-{2-[3-(4-morpholinyl)propoxyimino]propylidene}-4-phenyl-2azetidinone] is higher in “Inhibition Ratio” value: 12.00% for the first, 54.66% for the second.

With COc1ccc(N2C(=O)/C(=C/C(C)=NOCCCN3CCN(c4ccccn4)CC3)C2c2ccccc2)cc1 (stereo not drawn) [Compound 3, (E)-1-(4-Methoxyphenyl)-3-[2-[3-{1-[4-(2-pyridyl)piperadinyl]}propoxyimino]-propylidene]-4-phenyl-2-azetidinone] the “Inhibition Ratio” value was 57.61%.
